This is an account of results in PubChem BioAssay (NCI).

Among the test systems are OVCAR-4 ovarian; HOP-92 NSCLC; OVCAR-5 ovarian; A549 NSCLC; HCT-15 colon; SR leukemia; COLO 205 colon; MOLT-4 leukemia; DMS 114 small cell lung; M19-MEL melanoma.
What all share (assay): DTP human tumour cell line panel, 48 h

Several values for one entry are separate records, joined by “and”; a condition that tells them apart may be missing. Equal values may be shown once.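 These data come from cells grown in 96-well plates and exposed to compound for 48 hours at five concentrations. Abbreviation: GI50, concentration required for 50% inhibition of growth. TGI is the concentration that stops growth completely.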

In the case of `O=C(Nc1c[nH]c(=O)[nH]c1=O)Oc1ccccc1`, the TGI in the assay with OVCAR-4 ovarian, with HOP-92 NSCLC, in the assay with OVCAR-5 ovarian, in the assay with A549 NSCLC, in the assay on HCT-15 colon and with SR leukemia was greater than 100 µM throughout. Moreover, the TGI in the assay with COLO 205 colon and with MOLT-4 leukemia was greater than 100 µM in each case.
As to `Oc1ccccc1/C=N\NC(=S)Nc1ccc(F)cc1`, the GI50 (commonly the concentration giving 50% growth inhibition) is 0.462 µM with OVCAR-4 ovarian; 0.962 µM with HOP-92 NSCLC; 4.63 µM in the assay on OVCAR-5 ovarian; 2.33 µM in the assay on A549 NSCLC; 0.529 µM in the assay with HCT-15 colon; 0.415 µM with SR leukemia. In addition, the results for the GI50 with COLO 205 colon and with MOLT-4 leukemia were 4.8 µM and 0.586 µM, respectively. In addition, the TGI (commonly the concentration at which net growth stops) in the assay with OVCAR-4 ovarian is 49.4 µM; with HOP-92 NSCLC it was greater than 100 µM; with OVCAR-5 ovarian, greater than 100 µM; in the assay on A549 NSCLC, greater than 100 µM; in the assay on HCT-15 colon, greater than 100 µM; with SR leukemia, 10.5 µM. Also, the figures for the concentration for total growth inhibition (TGI) with COLO 205 colon and in the assay on MOLT-4 leukemia were greater than 43 µM and greater than 31.1 µM, respectively.
As to `COc1cccc(NC(=O)/C(CS(=O)(=O)CCC(C(C)=O)C(C)=O)=N\NC(C)(C)C)c1`, the TGI with OVCAR-4 ovarian, in the assay on HOP-92 NSCLC, in the assay on OVCAR-5 ovarian, in the assay on A549 NSCLC, with HCT-15 colon and with DMS 114 small cell lung was greater than 100 µM throughout. In addition, the TGI in the assay on COLO 205 colon and in the assay on MOLT-4 leukemia was greater than 100 µM throughout.
Take `COc1oc(C2C/C(=C/C(C)=C/C(C)=C/C(C)=C/c3ccc([N+](=O)[O-])cc3)CO2)c(C)c(=O)c1C` (centres undefined): the TGI is greater than 42.2 µM in the assay on OVCAR-4 ovarian; 40 µM in the assay on HOP-92 NSCLC; greater than 100 µM with OVCAR-5 ovarian; 68.3 µM in the assay on A549 NSCLC; greater than 56.6 µM with HCT-15 colon; 3 µM in the assay on SR leukemia. For the same molecule, the figures for the TGI in the assay with COLO 205 colon and with MOLT-4 leukemia were 24.6 µM and 10.2 µM, respectively.
For `COc1cccc(/C=C\C(=O)c2ccccc2)c1`, the GI50 in the assay with OVCAR-4 ovarian was 10.8 µM; in the assay on HOP-92 NSCLC it was 6.46 µM; in the assay with OVCAR-5 ovarian, 9.84 µM; with A549 NSCLC it was 15 µM; in the assay on HCT-15 colon it was 2.4 µM; in the assay on SR leukemia, 8.89 µM. Moreover, the GI50 with COLO 205 colon is 7.82 µM; in the assay with MOLT-4 leukemia, 6.1 µM. Moreover, the TGI with OVCAR-4 ovarian is 27 µM; in the assay with HOP-92 NSCLC, 26.2 µM; with OVCAR-5 ovarian, 41.2 µM; with A549 NSCLC it was 40.5 µM; in the assay with HCT-15 colon it was 10.1 µM; in the assay with SR leukemia, greater than 100 µM. Besides, the TGI in the assay on COLO 205 colon was 40.8 µM; with MOLT-4 leukemia, greater than 100 µM.
As for `CC(=O)[CH-]C(=O)c1ccccc1.CC(=O)[CH-]C(=O)c1ccccc1.Cl.[O-]CCc1ccccn1.[O-]CCc1ccccn1.[Ti+4]`, the GI50 with OVCAR-4 ovarian is 41.4 µM; with OVCAR-5 ovarian it was 43.3 µM; in the assay on A549 NSCLC, 27.8 µM; in the assay with HCT-15 colon it was 46.2 µM; in the assay on COLO 205 colon it was 29.3 µM; in the assay with MOLT-4 leukemia it was 13.3 µM. Besides, the GI50 in the assay with M19-MEL melanoma was 25.4 µM. The TGI in the assay on OVCAR-4 ovarian is greater than 100 µM; in the assay with OVCAR-5 ovarian it was greater than 100 µM; in the assay on A549 NSCLC it was 95.9 µM; in the assay with HCT-15 colon it was greater than 100 µM; in the assay with COLO 205 colon it was 72.2 µM; in the assay on MOLT-4 leukemia, 49.3 µM. Also, the TGI in the assay with M19-MEL melanoma came out at 75.3 µM.
On to `COc1cc(F)c(F)c(Nc2ccc(I)cc2F)c1NS(=O)(=O)C1(CC(O)CO)CC1` (centres undefined), for which the GI50 with OVCAR-4 ovarian is 16.6 µM; with HOP-92 NSCLC it was 1.13 µM; in the assay with OVCAR-5 ovarian it was 10.2 µM; with A549 NSCLC, 15.4 µM; in the assay on HCT-15 colon, 14.6 µM; in the assay with SR leukemia, 15.7 µM. Also, the GI50 in the assay on COLO 205 colon was 3.43 µM; in the assay on MOLT-4 leukemia, 15.2 µM. In addition, the TGI with OVCAR-4 ovarian was greater than 91.9 µM; with HOP-92 NSCLC, 19.6 µM; in the assay with OVCAR-5 ovarian, 30.1 µM; in the assay on A549 NSCLC, greater than 64.9 µM; in the assay on HCT-15 colon it was 47.4 µM; in the assay with SR leukemia, greater than 69.4 µM. For the same molecule, the figures for the TGI in the assay on COLO 205 colon and in the assay with MOLT-4 leukemia were 16.1 µM and 52.3 µM, respectively.
Turning to `CCCCCn1sc(=O)n(Cc2ccc(CNC(=O)C(C)c3ccc(CC(C)C)cc3)cc2)c1=O` (centres undefined), the GI50 in the assay on OVCAR-4 ovarian is 0.999 µM; with HOP-92 NSCLC it was 0.577 µM; in the assay on OVCAR-5 ovarian, 1.56 µM; in the assay with A549 NSCLC it was 1.65 µM; in the assay with HCT-15 colon, 0.424 µM; with SR leukemia, 0.452 µM. For the same molecule, the GI50 with COLO 205 colon is 0.598 µM; in the assay with MOLT-4 leukemia it was 0.848 µM. Besides, the TGI is 2.42 µM in the assay with OVCAR-4 ovarian; 2.09 µM with HOP-92 NSCLC; 3.19 µM with OVCAR-5 ovarian; 4.26 µM in the assay with A549 NSCLC; 1.62 µM with HCT-15 colon; 5.77 µM in the assay with SR leukemia. The TGI in the assay on COLO 205 colon is 2.08 µM; in the assay on MOLT-4 leukemia, greater than 22.5 µM.
As to `COc1cc2c3c(c4cc(OC)c(OC)cc4c2cc1OC)CN1CCC[C@H]1C3`, the GI50 with OVCAR-4 ovarian is 0.0419 µM and < 0.01 µM; in the assay with HOP-92 NSCLC, 0.0366 µM and < 0.0105 µM; in the assay on HCT-15 colon, 0.0463 µM and 0.0111 µM; in the assay on SR leukemia it was 0.0667 µM and 0.0102 µM; in the assay with COLO 205 colon, 0.0592 µM and < 0.01 µM; in the assay on MOLT-4 leukemia, 0.0382 µM and < 0.01 µM. The TGI is 1.28 µM and 0.392 µM in the assay with OVCAR-4 ovarian; 1.34 µM and 0.695 µM in the assay with HOP-92 NSCLC; 0.681 µM in the assay on OVCAR-5 ovarian; 0.142 µM with A549 NSCLC; greater than 34.9 µM in the assay on MOLT-4 leukemia.
`CC[C@H](C)[C@H](NC(=O)CN(C)C)C(=O)N(C)[C@H](C[C@@H](OC(C)=O)c1nc(C(=O)NC23C4C5C2C2C3C4C52C(=O)OC)cs1)C(C)C` (some centres undefined): the GI50 with OVCAR-4 ovarian was 2.81 µM; with HOP-92 NSCLC it was greater than 33.2 µM; in the assay on OVCAR-5 ovarian it was greater than 10.4 µM; with A549 NSCLC it was 2.12 µM; in the assay with HCT-15 colon it was 1.04 µM; in the assay with SR leukemia, 0.038 µM. The 50% growth inhibitory concentration (GI50) with COLO 205 colon is 0.247 µM; with MOLT-4 leukemia, 0.252 µM. The concentration for total growth inhibition (TGI) in the assay with OVCAR-4 ovarian, in the assay on HOP-92 NSCLC, with OVCAR-5 ovarian, in the assay with A549 NSCLC, in the assay on HCT-15 colon and in the assay with SR leukemia was greater than 33.2 µM throughout. Moreover, the TGI in the assay with COLO 205 colon is 5.53 µM; in the assay on MOLT-4 leukemia, greater than 33.2 µM.
